Assay results reported in patent US10493118B2, “Triterpenoid obtainable from hedera helix for treatment of neurodegenerative diseases” (Macau University of Science and Technology, priority 2016, dated 2019).

Tests used:
Format in all cases: cell-based
p-AMPK = experiment: Western blot of AMPK phosphorylation; details: hederagenin 0-80 μM, α-hederin 0-24 μM, 24 h
Excerpt: Protein extraction and Western blots: Cells were harvested by RIPA lysis buffer (Cell Signaling Technologies, Beverly, Mass., USA), and with the final protein concentrations measured by using Bradford reagent (Bio-Rad, Hercules, Calif., USA). After electrophoresis for protein band separation, proteins were transferred to the nitrocellulose membrane which was blocked with 5% non-fat dried milk immediately after protein transfer. Corresponding primary antibodies, followed by the addition of HRP-conjugated secondary antibodies, were incubated with the protein membrane with constant shaking. Visualization of protein band pattern was performed by using the ECL Western Blotting Detection Reagents (Invitrogen, Paisley, Scotland). Band intensities were quantified by using the software, ImageJ (ImageJ 1.46r; National Institutes of Health, Bethesda, Md., USA).

LC3-II = experiment: Western blot of LC3 conversion (LC3-II) in PC-12 cells; details: for protein level of LC3-II with AMPK inhibitor compound C (CC): 60 μM hederagenin or 18 μM α-hederin with 5 μM CC; for protein level of LC3-II with addition of 3-MA: 60 μM hederagenin or 18 μM α-hederin with 5 mM 3-MA; for rate of LC3-II formation with lysosomal protease inhibitors (autophagic flux): 60 μM hederagenin or 18 μM α-hederin with E64d and pepstatin A (10 μg/mL), compared with compounds alone; for protein level of LC3-II: PC-12 cells, various durations and concentrations
[1] = tested on: GFP-LC3 transfected PC-12 cells; experiment: GFP-LC3 autophagic puncta formation by fluorescence microscopy; details: for percentage of cells with GFP-LC3 puncta formation with addition of 3-MA: 60 μM hederagenin or 18 μM α-hederin with 5 mM 3-MA for 24 h; for formation of GFP-LC3 puncta with AMPK inhibitor compound C (CC): 60 μM hederagenin or 18 μM α-hederin with 5 mM CC for 24 h; for formation of fluorescent LC3 II puncta: PC-12 cells, hederagenin 20-80 μM, α-hederin 6-24 μM, 4-24 h
Experimental: Firstly, cells were plated on top of coverslips inside a 6-well culture dish. After compound treatment, cells were fixed with 4% paraformaldehyde for 20 min. FluorSave™ mounting media (Calbiochem, San Diego, Calif., USA) was used to mount the coverslips with cells before subjected to fluorescence microscopic analysis. The number of GFP-positive cells, and cells with GFP-LC3 puncta formation were examined and counted under the Nikon ECLIPSE 80i microscope by using 40× of magnification. In order to standardize the quantitation, the percentage of cells with autophagy induction was defined by counting the number of cells with increased punctate GFP-LC3 fluorescence in GFP-positive cells. A minimum of 1000 GFP-positive cells from 3 randomly selected fields were scored.
Firstly, cells were plated on top of coverslips inside a 6-well culture dish. After compounds treatments, cells were fixed with 4% paraformaldehyde for 20 min. FluorSave™ mounting media (Calbiochem, San Diego, Calif., USA) was used to mount the coverslips with cells before subjected to fluorescence microscopic analysis. The number of GFP-positive cells, and cells with GFP-LC3 puncta formation was examined and counted under the Nikon ECLIPSE 80i microscope by using 40× of magnification. In order to standardize the quantitation, the percentage of cells with autophagy induction was defined by counting the number of cells with punctate GFP-LC3 fluorescence in GFP-positive cells. A minimum of 1000 GFP-positive cells from 3 randomly selected fields were scored.

Structure (SMILES) | phosphorylation of AMPK (p-AMPK) | protein level of LC3-II with AMPK inhibitor compound C (CC) (LC3-II) | protein level of LC3-II with addition of 3-MA (LC3-II) | rate of LC3-II formation with lysosomal protease inhibitors (autophagic flux) (LC3-II) | protein level of LC3-II (LC3-II) | percentage of cells with GFP-LC3 puncta formation with addition of 3-MA [1] | formation of GFP-LC3 puncta with AMPK inhibitor compound C (CC) [1] | formation of fluorescent LC3 II puncta [1]
C[C@@H]1O[C@@H](O[C@H]2[C@H](O[C@H]3CC[C@@]4(C)[C@@H](CC[C@]5(C)[C@@H]4CC=C4[C@@H]6CC(C)(C)CC[C@]6(C(=O)O)CC[C@]45C)[C@]3(C)CO)OC[C@H](O)[C@@H]2O)[C@H](O)[C@H](O)[C@H]1O [α-hederin] | increased phosphorylation of AMPK | significant reduction in protein level of LC3-II | decreased protein level of LC3-II | significantly increase the rate of LC3-II formation | increase in the protein level of LC3-II via a dose- and time-dependent manner | decreases the rate of autophagy | significant reduction | increased formation of fluorescent LC3 II puncta
CC1(C)CC[C@]2(C(=O)O)CC[C@]3(C)C(=CC[C@@H]4[C@@]5(C)CC[C@H](O)[C@@](C)(CO)[C@@H]5CC[C@]43C)[C@@H]2C1 [hederagenin] | increased phosphorylation of AMPK | significant reduction in protein level of LC3-II | decreased protein level of LC3-II | significantly increase the rate of LC3-II formation | increase in the protein level of LC3-II via a dose- and time-dependent manner | decreases the rate of autophagy | significant reduction | increased formation of fluorescent LC3 II puncta
